Reference: US20260285850A1, “SUBSTITUTED OXAZOLIDINONES AND IMIDAZOLINONES AS HERBICIDES” (FMC CORPORATION, priority 2023, published 2026)

Tests used:
Type in all cases: in vivo
[1] = test system: ragweed (common ragweed, Ambrosia artemisiifolia); assay: Test A postemergence application, visual injury rating 0-100
Procedure, shortened: (§1)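 Grow plants in loam soil blended with sand. Apply formulated compound (non-phytotoxic solvent, surfactant) as a directed soil spray before emergence, or to plants at the one- to two-leaf stage after emergence. Hold in greenhouse 10 days, then rate injury visually versus untreated controls on a 0-100 scale.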

[2] = test system: soybean (Glycine max); assay: as above
Procedure, shortened: as §1

[3] = test system: wheat (Triticum aestivum); assay: as above
Procedure, shortened: as §1

[4] = test system: oat, wild (wild oat, Avena fatua); assay: as above
Procedure, shortened: as §1

[5] = test system: green foxtail (Setaria viridis); assay: as above
Procedure, shortened: as §1

[6] = test system: galium (catchweed bedstraw, Galium aparine); assay: as above
Procedure, shortened: as §1

[7] = test system: ryegrass, Italian (italian ryegrass, Lolium multiflorum); assay: as above
Procedure, shortened: as §1

[8] = test system: barnyardgrass (Echinochloa crus-galli); assay: as above
Procedure, shortened: as §1

[9] = test system: blackgrass (Alopecurus myosuroides); assay: as above
Procedure, shortened: as §1

[10] = test system: horseweed (Erigeron canadensis); assay: as above
Procedure, shortened: as §1

[11] = test system: palmer (palmer amaranth, palmer pigweed, Amaranthus palmeri); assay: as above
Procedure, shortened: as §1

[12] = test system: kochia (Bassia scoparia); assay: as above
Procedure, shortened: as §1

[13] = test system: corn (Zea mays); assay: as above
Procedure, shortened: as §1

[14] = test system: barnyardgrass (Echinochloa crusgalli); assay: Test B flooded paddy test, visual plant response rating 0-100; conditions: 250 g ai/ha, Flood, applied to paddy water, evaluated after 13 days
Procedure, shortened: (§2)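 Plants were grown to the 2-leaf stage, then pots were flooded to 3 cm above the soil and test compounds were applied directly into the paddy water. Water depth was held there throughout; after 13 days in a greenhouse, injury was scored visually against untreated controls.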

[15] = test system: ducksalad (Heteranthera limosa); assay: as above; conditions: 250 g ai/ha, Flood, applied to paddy water, evaluated after 13 days
Procedure, shortened: as §2

[16] = test system: rice (Oryza sativa); assay: as above; conditions: 250 g ai/ha, Flood, applied to paddy water, evaluated after 13 days
Procedure, shortened: as §2

[17] = test system: sedge, umbrella (small-flower umbrella sedge, Cyperus difformis); assay: as above; conditions: 250 g ai/ha, Flood, applied to paddy water, evaluated after 13 days
Procedure, shortened: as §2

[18] = test system: ragweed (common ragweed, Ambrosia artemisiifolia); assay: Test A preemergence soil spray, visual injury rating 0-100; conditions: 10 days
Procedure, shortened: as §1

[19] = test system: soybean (Glycine max); assay: as above; conditions: 10 days
Procedure, shortened: as §1

[20] = test system: wheat (Triticum aestivum); assay: as above; conditions: 10 days
Procedure, shortened: as §1

[21] = test system: oat, wild (wild oat, Avena fatua); assay: as above; conditions: 10 days
Procedure, shortened: as §1

[22] = test system: green foxtail (Setaria viridis); assay: as above; conditions: 10 days
Procedure, shortened: as §1

[23] = test system: ryegrass, Italian (italian ryegrass, Lolium multiflorum); assay: as above; conditions: 10 days
Procedure, shortened: as §1

[24] = test system: barnyardgrass (Echinochloa crus-galli); assay: as above; conditions: 10 days
Procedure, shortened: as §1

[25] = test system: blackgrass (Alopecurus myosuroides); assay: as above; conditions: 10 days
Procedure, shortened: as §1

[26] = test system: palmer (palmer amaranth, palmer pigweed, Amaranthus palmeri); assay: as above; conditions: 10 days
Procedure, shortened: as §1

[27] = test system: kochia (Bassia scoparia); assay: as above; conditions: 10 days
Procedure, shortened: as §1

[28] = test system: corn (Zea mays); assay: as above; conditions: 10 days
Procedure, shortened: as §1

[29] = 62 g ai/ha, postemergence, 10 days, 0 = no effect, 100 = complete control
[30] = Postemergence, 16 g ai/ha, greenhouse 10 days, 0 no effect, 100 complete control
[31] = 62 g ai/ha, 0 = no effect, 100 = complete control

## CC1(C(=O)NC2CC=C(C(=O)NS(C)(=O)=O)C2)CN(c2cc(F)cc(F)c2)C(=O)O1 (racemic) [Compound 103]
[1]; [29]
  Ragweed plant response rating (0-100): 30
[1]; [30]
  Ragweed plant response rating (0 to 100 scale): 10
[2]; [29]
  Soybean plant response rating (0-100): 40
[2]; [30]
  Soybean plant response rating (0 to 100 scale): 10
[3]; [29]
  Wheat plant response rating (0-100): 70
[3]; [30]
  Wheat plant response rating (0 to 100 scale): 20
[4]; [29]
  Oat, Wild plant response rating (0-100): 20
[4]; [30]
  Oat, Wild plant response rating (0 to 100 scale): 0
[5]; [29]
  Foxtail, Green plant response rating (0-100): 90
[5]; [30]
  Foxtail, Green plant response rating (0 to 100 scale): 0
[6]; [29]
  Galium plant response rating (0-100): 60
[6]; [30]
  Galium plant response rating (0 to 100 scale): 10
[7]; [29]
  Ryegrass, Italian plant response rating (0-100): 30
[7]; [30]
  Ryegrass, Italian plant response rating (0 to 100 scale): 0
[8]; [29]
  Barnyardgrass plant response rating (0-100): 100
[8]; [30]
  Barnyardgrass plant response rating (0 to 100 scale): 50
[9]; [29]
  Blackgrass plant response rating (0-100): 40
[9]; [30]
  Blackgrass plant response rating (0 to 100 scale): 0
[10]; [29]
  Horseweed plant response rating (0-100): 0
[10]; [30]
  Horseweed plant response rating (0 to 100 scale): 0
[11]; [29]
  Pigweed, Palmer plant response rating (0-100): 70
[11]; [30]
  Pigweed, Palmer plant response rating (0 to 100 scale): 60
[12]; [29]
  Kochia plant response rating (0-100): 80
[12]; [30]
  Kochia plant response rating (0 to 100 scale): 20
[13]; [29]
  Corn plant response rating (0-100): 80
[13]; [30]
  Corn plant response rating (0 to 100 scale): 10
[14]
  Plant response rating, Barnyardgrass (0 to 100 scale, 0 is no effect and 100 is complete control): 0
[15]
  Plant response rating, Ducksalad (0 to 100 scale, 0 is no effect and 100 is complete control): 0
[16]
  Plant response rating, Rice (0 to 100 scale, 0 is no effect and 100 is complete control): 0
[17]
  Plant response rating, Sedge, Umbrella (0 to 100 scale, 0 is no effect and 100 is complete control): 0
[18]; 16 g ai/ha, 0 to 100 scale
  Ragweed plant response rating: 0
[18]; [31]
  Ragweed plant response rating (0-100): 0
[19]; 16 g ai/ha, 0 to 100 scale
  Soybean plant response rating: 20
[19]; [31]
  Soybean plant response rating (0-100): 20
[20]; 16 g ai/ha, 0 to 100 scale
  Wheat plant response rating: 0
[20]; [31]
  Wheat plant response rating (0-100): 60
[21]; 16 g ai/ha, 0 to 100 scale
  Oat, Wild plant response rating: 0
[21]; [31]
  Oat, Wild plant response rating (0-100): 0
[22]; 16 g ai/ha, 0 to 100 scale
  Foxtail, Green plant response rating: 20
[22]; [31]
  Foxtail, Green plant response rating (0-100): 40
[23]; 16 g ai/ha, 0 to 100 scale
  Ryegrass, Italian plant response rating: 0
[23]; [31]
  Ryegrass, Italian plant response rating (0-100): 40
[24]; 16 g ai/ha, 0 to 100 scale
  Barnyardgrass plant response rating: 0
[24]; [31]
  Barnyardgrass plant response rating (0-100): 10
[25]; 16 g ai/ha, 0 to 100 scale
  Blackgrass plant response rating: 0
[25]; [31]
  Blackgrass plant response rating (0-100): 0
[26]; 16 g ai/ha, 0 to 100 scale
  Pigweed, Palmer plant response rating: 0
[26]; [31]
  Pigweed, Palmer plant response rating (0-100): 80
[27]; 16 g ai/ha, 0 to 100 scale
  Kochia plant response rating: 0
[27]; [31]
  Kochia plant response rating (0-100): 50
[28]; 16 g ai/ha, 0 to 100 scale
  Corn plant response rating: 0
[28]; [31]
  Corn plant response rating (0-100): 10
